Assay results: patent US20080167290A1, “Combination of a Serotonin Reuptake Inhibitor and Amoxapine” (H. Lundbeck A/S, priority 2003, published 2008)
Like-named read-outs stand apart in the source and are kept apart here.

Tested on: 5-HT levels in ventral hippocampus
Details: for effects on hippocampal 5-HT levels: amoxapine alone, rat ventral hippocampus microdialysis
Protocol: Male albino rats of a Wistar-derived strain (285-320 g; Harlan, Zeist, The Netherlands) were used for the experiments. Upon surgery, rats were housed individually in plastic cages (35×35×40 cm), and had free access to food and water. Animals were kept on a 12 h light schedule (light on 7:00 a.m.). The experiments are concordant with the declarations of Helsinki and were approved by the animal care committee of the faculty of mathematics and natural science of the University of Groningen.
Preceding surgery rats were anaesthetised using isoflurane (O2/N2O; 300/300 ml/min). Lidocaine-HCl, 10% (m/v) was used for local anaesthesia.
Rats were allowed to recover for at least 24 h. […] 15 minute microdialysis samples were collected in HPLC vials containing 7.5 μl 0.02 M acetic acid for serotonin analysis.
Twenty-μl microdialysate samples were injected via an autoinjector (CMA/200 refrigerated microsampler, CMA, Sweden) onto a 100×2.0 mm C18 Hypersil 3 μm column (Bester, Amstelveen, the Netherlands) and separated with a mobile phase consisting of 5 g/L di-ammoniumsulfate, 500 mg/L EDTA, 50 mg/L heptane sulphonic acid, 4% methanol v/v, and 30 μl/L of triethylamine, pH 4.65 at a flow of 0.4 ml/min (Shimadzu LC-10 AD). 5-HT was detected amperometrically at a glassy carbon electrode at 500 mV vs Ag/AgCl (Antec Leyden, Leiden, The Netherlands). The detection limit was 0.5 fmol 5-HT per 20 μl sample (signal to noise ratio 3).
Four consecutive microdialysis samples with less then 20% variation were taken as control and set at 100%. […] Treatments were compared versus controls using two way analysis of variance (ANOVA) for repeated measurements, followed by Student Newman Keuls test. […] Level of significance level was set at p<0.05.

SMILES: Clc1ccc2c(c1)C(N1CCNCC1)=Nc1ccccc1O2 [amoxapine]
- effects on hippocampal 5-HT levels (1 μmol/kg s.c., P=0.08): did not induce any significant effects
- effects on hippocampal 5-HT levels (10 μmol/kg s.c., P=0.47): did not induce any significant effects
- response in the 5-HT microdialysis model (summary statement, dose not stated, compared to the serotonin reuptake inhibitor alone): no significant effect
